US20250101041A1, “POSITIVE ALLOSTERIC MODULATORS OF THE MUSCARINIC ACETYLCHOLINE RECEPTOR M4” (Vanderbilt University, priority 2022, published 2025)

Target: T1, human mAChR M4 (Homo sapiens, UniProt P08173)
T1 construct: expressed in transfected cells; host or cells: CHO-K1 (American Type Culture Collection), stably expressing hM4 and Gqi5
T1 sequence (P08173 1-479): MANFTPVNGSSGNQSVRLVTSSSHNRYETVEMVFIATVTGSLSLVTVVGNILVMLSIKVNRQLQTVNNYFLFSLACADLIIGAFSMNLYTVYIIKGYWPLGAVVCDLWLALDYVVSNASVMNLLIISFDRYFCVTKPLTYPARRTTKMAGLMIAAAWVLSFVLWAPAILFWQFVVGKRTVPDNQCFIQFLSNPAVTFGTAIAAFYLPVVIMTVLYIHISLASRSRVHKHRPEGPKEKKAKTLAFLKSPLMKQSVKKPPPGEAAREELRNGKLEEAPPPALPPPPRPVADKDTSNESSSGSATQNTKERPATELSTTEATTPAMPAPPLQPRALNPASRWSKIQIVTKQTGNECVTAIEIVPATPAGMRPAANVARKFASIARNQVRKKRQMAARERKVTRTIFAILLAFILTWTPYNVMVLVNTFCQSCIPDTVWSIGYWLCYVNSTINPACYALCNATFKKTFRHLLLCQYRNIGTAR
Assay: mAChR M4 cell-based functional assay: calcium mobilization (Fluo-4, FDSS), potentiation of EC20 acetylcholine response in hM4-Gqi5 CHO-K1 cells
Settings: human M4; for Emax at 30 µM: CHO-K1, % ACh maximum at 30 μM; for EC50: potentiation of EC20 acetylcholine response, calcium mobilization
In short: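 CHO-K1 cells stably co-expressing human M4 and chimeric Gqi5, loaded with Fluo-4 AM (50 min, 37 °C). Compounds in 11-point 1:3 series added first; EC20 acetylcholine added at 144 s and again at 230 s. Calcium read on FDSS at 1 Hz; EC50 and Emax from four-parameter logistic fit of potentiated EC20 response.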

SMILES	Emax at 30 µM [%]	EC50 [nM]
Cc1cc2nccc(=O)n2nc1N1CCc2ncc(N3CCOC(c4ccccc4)C3)cc2C1 (centres unmarked) [Compound 2-66, 8-methyl-7-(3-(2-phenylmorpholino)-7,8-dihydro-1,6-naphthyridin-6(5H)-yl)-4H-pyrimido[1,2-b]pyridazin-4-one]	79	652
Cc1cc2nccc(=O)n2nc1N1CCc2ncc(Nc3ccccc3Cl)cc2C1 [Compound 2-67, 7-(3-((2-chlorophenyl)amino)-7,8-dihydro-1,6-naphthyridin-6(5H)-yl)-8-methyl-4H-pyrimido[1,2-b]pyridazin-4-one]	95	25
Cc1cc2nccc(=O)n2nc1N1CCc2ncc(N3CCOC(C)(C)C3)cc2C1 [Compound 2-68, 7-(3-(2,2-dimethylmorpholino)-7,8-dihydro-1,6-naphthyridin-6(5H)-yl)-8-methyl-4H-pyrimido[1,2-b]pyridazin-4-one]	96	113
Cc1ccc(F)cc1Nc1cnc2c(c1)CN(c1nn3c(=O)ccnc3cc1C)CC2 [Compound 2-69, 7-(3-((5-fluoro-2-methylphenyl)amino)-7,8-dihydro-1,6-naphthyridin-6(5H)-yl)-8-methyl-4H-pyrimido[1,2-b]pyridazin-4-one]	96	20
COc1ccc(F)c(Nc2cnc3c(c2)CN(c2nn4c(=O)ccnc4cc2C)CC3)c1 [Compound 2-70, 7-(3-((2-fluoro-5-methoxyphenyl)amino)-7,8-dihydro-1,6-naphthyridin-6(5/)-yl)-8-methyl-4H-pyrimido[1,2-b]pyridazin-4-one]	94	85
Cc1cc2nccc(=O)n2nc1N1CCc2ncc(Nc3cccc(OC(F)F)c3)cc2C1 [Compound 2-71, 7-(3-((3-(difluoromethoxy)phenyl)amino)-7,8-dihydro-1,6-naphthyridin-6(5H)-yl)-8-methyl-4H-pyrimido[1,2-b]pyridazin-4-one]	97	82
Cc1cc2nccc(=O)n2nc1N1CCc2ncc(Nc3cccc4c3OCCO4)cc2C1 [Compound 2-72, 7-(3-((2,3-dihydrobenzo[b][1,4]dioxin-5-yl)amino)-7,8-dihydro-1,6-naphthyridin-6(5H)-yl)-8-methyl-4H-pyrimido[1,2-b]pyridazin-4-one]	69	549
COc1cc(F)ccc1Nc1cnc2c(c1)CN(c1nn3c(=O)ccnc3cc1C)CC2 [Compound 2-74, 7-(3-((4-fluoro-2-methoxyphenyl)amino)-7,8-dihydro-1,6-naphthyridin-6(5H)-yl)-8-methyl-4H-pyrimido[1,2-b]pyridazin-4-one]	62	398
Cc1ccccc1Nc1cnc2c(c1)CN(c1nn3c(=O)ccnc3cc1C)CC2 [Compound 2-75, 8-methyl-7-(3-(o-tolylamino)-7,8-dihydro-1,6-naphthyridin-6(5H)-yl)-4H-pyrimido[1,2-b]pyridazin-4-one]	93	17
Cc1cc2nccc(=O)n2nc1N1CCc2ncc(N3CCOC(c4ccccn4)C3)cc2C1 (centres unmarked) [Compound 2-76, 8-methyl-7-(3-(2-(pyridin-2-yl)morpholino)-7,8-dihydro-1,6-naphthyridin-6(5H)-yl)-4H-pyrimido[1,2-b]pyridazin-4-one]	76	5340
Cc1cc2nccc(=O)n2nc1N1CCc2ncc(N3CCOC(c4cccnc4)C3)cc2C1 (centres unmarked) [Compound 2-77, 8-methyl-7-(3-(2-(pyridin-3-yl)morpholino)-7,8-dihydro-1,6-naphthyridin-6(5H)-yl)-4H-pyrimido[1,2-b]pyridazin-4-one]	80	1270
Cc1cc2nccc(=O)n2nc1N1CCc2ncc(Nc3cccnc3F)cc2C1 [Compound 2-78, 7-(3-((2-fluoropyridin-3-yl)amino)-7,8-dihydro-1,6-naphthyridin-6(5H)-yl)-8-methyl-4H-pyrimido[1,2-b]pyridazin-4-one]	103	102
Cc1cc2nccc(=O)n2nc1N1CCc2ncc(Nc3cccc(F)c3)cc2C1 [Compound 2-79, 7-(3-((3-fluorophenyl)amino)-7,8-dihydro-1,6-naphthyridin-6(5H)-yl)-8-methyl-4H-pyrimido[1,2-b]pyridazin-4-one]	99	20
Cc1cc2nccc(=O)n2nc1N1CCc2ncc(Nc3cccc(C#N)c3)cc2C1 [Compound 2-80, 3-((6-(8-methyl-4-oxo-4H-pyrimido[1,2-b]pyridazin-7-yl)-5,6,7,8-tetrahydro-1,6-naphthyridin-3-yl)amino)benzonitrile]	97	47
Cc1cc2nccc(=O)n2nc1N1CCc2ncc(Nc3cc(F)ccc3C#N)cc2C1 [Compound 2-81, 4-fluoro-2-((6-(8-methyl-4-oxo-4H-pyrimido[1,2-b]pyridazin-7-yl)-5,6,7,8-tetrahydro-1,6-naphthyridin-3-yl)amino)benzonitrile]	85	230
COc1cc(Cl)cc(Nc2cnc3c(c2)CN(c2nn4c(=O)ccnc4cc2C)CC3)c1 [Compound 2-82, 7-(3-((3-chloro-5-methoxyphenyl)amino)-7,8-dihydro-1,6-naphthyridin-6(5H)-yl)-8-methyl-4H-pyrimido[1,2-b]pyridazin-4-one]	79	489
Cc1nc(-c2cccc(Nc3cnc4c(c3)CN(c3nn5c(=O)ccnc5cc3C)CC4)c2)cs1 [Compound 2-83, 8-methyl-7-(3-((3-(2-methylthiazol-4-yl)phenyl)amino)-7,8-dihydro-1,6-naphthyridin-6(5H)-yl)-4H-pyrimido[1,2-b]pyridazin-4-one]	59	639
COc1cccc(C2CN(c3cnc4c(c3)CN(c3nn5c(=O)ccnc5cc3C)CC4)CCO2)c1 (centres unmarked) [Compound 2-84, 7-(3-(2-(3-methoxyphenyl)morpholino)-7,8-dihydro-1,6-naphthyridin-6(5H)-yl)-8-methyl-4H-pyrimido[1,2-b]pyridazin-4-one]	64	1910
Cc1cc2nccc(=O)n2nc1N1CCc2ncc(N3CCc4ccccc43)cc2C1 [Compound 2-85, 7-(3-(indolin-1-yl)-7,8-dihydro-1,6-naphthyridin-6(5H)-yl)-8-methyl-4H-pyrimido[1,2-b]pyridazin-4-one]	95	22
Cc1cc2nccc(=O)n2nc1N1CCc2ncc(NCC3CCCOC3)cc2C1 (centres unmarked) [Compound 2-86, 8-methyl-7-(3-(((tetrahydro-2H-pyran-3-yl)methyl)amino)-7,8-dihydro-1,6-naphthyridin-6(5H)-yl)-4H-pyrimido[1,2-b]pyridazin-4-one]	87	1830
Cc1cc2nccc(=O)n2nc1N1CCc2ncc(Nc3ccc(F)nc3)cc2C1 [Compound 2-87, 7-(3-((6-fluoropyridin-3-yl)amino)-7,8-dihydro-1,6-naphthyridin-6(5H)-yl)-8-methyl-4H-pyrimido[1,2-b]pyridazin-4-one]	99	228
Cc1cc2nccc(=O)n2nc1N1CCc2ncc(Nc3cccnc3)cc2C1 [Compound 2-88, 8-methyl-7-(3-(pyridin-3-ylamino)-7,8-dihydro-1,6-naphthyridin-6(5H)-yl)-4H-pyrimido[1,2-b]pyridazin-4-one]	106	173
